The compounds below were run against T1, human histamine H3 receptor (Homo sapiens, UniProt Q9Y5N1) (assay: H3 GTPγS assay (SPA method), histamine H3 in vitro assay). Conditions: GTPγ[35S] binding to membranes of cells expressing human H3; antagonist mode with R-γ-Me-Histamine at EC80 (30 nM); in one embodiment HCl salts tested; read-out: Potency (functional potency as indicated by IC50).
T1 construct: host or cells: cells expressing the human H3 receptor
T1 sequence (Q9Y5N1 whole entry): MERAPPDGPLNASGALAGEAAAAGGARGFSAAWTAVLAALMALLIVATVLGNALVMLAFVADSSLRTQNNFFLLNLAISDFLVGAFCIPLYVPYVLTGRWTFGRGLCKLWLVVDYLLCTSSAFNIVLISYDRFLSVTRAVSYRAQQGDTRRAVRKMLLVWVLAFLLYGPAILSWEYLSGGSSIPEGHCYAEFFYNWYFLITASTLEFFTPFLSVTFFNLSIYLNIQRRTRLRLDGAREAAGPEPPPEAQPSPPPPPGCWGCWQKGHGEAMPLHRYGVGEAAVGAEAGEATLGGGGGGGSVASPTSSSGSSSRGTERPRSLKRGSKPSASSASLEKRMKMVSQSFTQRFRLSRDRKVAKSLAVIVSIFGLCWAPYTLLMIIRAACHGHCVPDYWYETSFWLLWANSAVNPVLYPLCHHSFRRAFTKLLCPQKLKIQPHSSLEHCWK
Type: biochemical
c1cc2c(cc1CN1CCOCC1)nc1n2CCN(C2CCC2)CC1 [Compound 74, 3-cyclobutyl-9-(morpholin-1-ylmethyl)-2,3,4,5-tetrahydro-1H-[1,4]diazepino[1,7-a]benzimidazole] was tested, and the IC50 was ≤ 10 nM.
With COc1cccc(-c2ccc3c(c2)nc2n3CCN(C3CCC3)CC2)n1 [Compound 137, 3-cyclobutyl-8-(6-methoxypyridin-2-yl)-2,3,4,5-tetrahydro-1H-benzo[4,5]imidazo[1,2-d][1,4]diazepine] the IC50 was ≤ 100 nM.
With CC(=O)N1CCCC(c2ccc3c(c2)nc2n3CCN(C3CCC3)CC2)C1 (stereo not drawn) [Compound 171, 1-(3-(3-cyclobutyl-2,3,4,5-tetrahydro-1H-benzo[4,5]imidazo[1,2-d][1,4]diazepin-8-yl)piperidin-1-yl)ethanone] the IC50 was ≤ 10 nM.
CN(C)C(=O)c1ccc2nc3n(c2c1)CCN(C1CCC1)CC3 [Compound 85] was tested, and the IC50 was ≥ 1000 nM.
For c1c2c(cc3c1nc1n3CCN(C3CCC3)CC1)CNC2 [Compound 145, 8-cyclobutyl-1,2,3,6,7,8,9,10-octahydro-[1,4]diazepino[1′,7′:1,2]imidazo[4,5-f]isoindole], the IC50 was ≤ 10 nM.
With OC(c1ccc2c(c1)nc1n2CCN(C2CCC2)CC1)c1cnccn1 (stereo not drawn) [Compound 120, (3-cyclobutyl-2,3,4,5-tetrahydro-1H-benzo[4,5]imidazo[1,2-d][1,4]diazepin-8-yl)(pyrazin-2-yl)methanol] the IC50 was ≤ 100 nM.
For CC1CCC(N2CCc3nc4cc(-c5ccc(C#N)cc5)ccc4n3CC2)C1 (racemic) [Compound 34, rac-cis/trans-4-(3-(3-methylcyclopentyl)-2,3,4,5-tetrahydro-1H-[1,4]diazepino[1,7-a]benzimidazol-9-yl)benzonitrile], the IC50 was ≤ 100 nM.
With N#Cc1ccc(C(=O)N2CCCC(c3ccc4c(c3)nc3n4CCN(C4CCC4)CC3)C2)cc1 (stereo not drawn) [Compound 172, 4-(3-(3-cyclobutyl-2,3,4,5-tetrahydro-1H-benzo[4,5]imidazo[1,2-d][1,4]diazepin-8-yl)piperidine-1-carbonyl)benzonitrile] the IC50 was ≤ 100 nM.
With c1cc2c(cc1N1CCN(C3CCCC3)CC1)nc1n2CCN(C2CCC2)CC1 [Compound 100, 3-cyclobutyl-9-(4-cyclopentylpiperazin-1-yl)-2,3,4,5-tetrahydro-1H-[1,4]diazepino[1,7-a]benzimidazole] the IC50 was ≤ 10 nM.
In the case of CN1CCN(C(=O)c2ccc3c(c2)nc2n3CCN(C3CCC3)CC2)CC1 [Compound 58], the IC50 is reported as ≤ 1000 nM.
With Cn1cc2ccc(-c3ccc4c(c3)nc3n4CCN(C4CCC4)CC3)cc2n1 [Compound 206, 3-cyclobutyl-8-(2-methyl-2H-indazol-6-yl)-2,3,4,5-tetrahydro-1H-benzo[4,5]imidazo[1,2-d][1,4]diazepine] the IC50 was ≤ 100 nM.
With c1cc2c(cc1N1CCCC1)nc1n2CCN(C2CCC2)CC1 [Compound 226, 3-cyclobutyl-8-(pyrrolidin-1-yl)-2,3,4,5-tetrahydro-1H-benzo[4,5]imidazo[1,2-d][1,4]diazepine] the IC50 was ≤ 100 nM.
For c1cc2cc(-c3ccc4c(c3)nc3n4CCN(C4CCC4)CC3)ccc2[nH]1 [Compound 4], the IC50 was ≤ 100 nM.
For FC1CCCN(c2ccc3c(c2)nc2n3CCN(C3CCC3)CC2)C1 (stereo not drawn) [Compound 180, 3-cyclobutyl-8-(3-fluoropiperidin-1-yl)-2,3,4,5-tetrahydro-1H-benzo[4,5]imidazo[1,2-d][1,4]diazepine], the IC50 was ≤ 10 nM.
With c1cnc(N2CCCC(c3ccc4c(c3)nc3n4CCN(C4CCC4)CC3)C2)nc1 (stereo not drawn) [Compound 130, 3-cyclobutyl-8-(1-(pyrimidin-2-yl)piperidin-3-yl)-2,3,4,5-tetrahydro-1H-benzo[4,5]imidazo[1,2-d][1,4]diazepine] the IC50 was ≤ 100 nM.
With FC1(F)CCN(Cc2ccc3c(c2)nc2n3CCN(C3CCC3)CC2)CC1 [Compound 160, 3-cyclobutyl-8-((4,4-difluoropiperidin-1-yl)methyl)-2,3,4,5-tetrahydro-1H-benzo[4,5]imidazo[1,2-d][1,4]diazepine] the IC50 was ≤ 10 nM.
With c1cc2c(cc1C1CCCN(C3CCC3)C1)nc1n2CCN(C2CCC2)CC1 (stereo not drawn) [Compound 128, 3-cyclobutyl-8-(1-cyclobutylpiperidin-3-yl)-2,3,4,5-tetrahydro-1H-benzo[4,5]imidazo[1,2-d][1,4]diazepine] the IC50 was ≤ 10 nM.
With c1cc2nc3n(c2cc1-c1cn[nH]c1)CCN(C1CCC1)CC3 [Compound 49, 3-cyclobutyl-9-(1H-pyrazol-4-yl)-2,3,4,5-tetrahydro-1H-[1,4]diazepino[1,7-a]benzimidazole] the IC50 was ≤ 1000 nM.
With c1cnc(-c2cnc3c(c2)nc2n3CCN(C3CCC3)CC2)cn1 [Compound 236, 7-Aza-3-cyclobutyl-9-(pyrazin-2-yl)-2,3,4,5-tetrahydro-1H-[1,4]diazepino[1,7-a]benzimidazole] the IC50 was ≤ 1000 nM.
CC(=O)Nc1ccc(-c2ccc3c(c2)nc2n3CCN(C(C)C3CCC3)CC2)cc1 (stereo not drawn) [Compound 7] was tested, and the IC50 was ≤ 1000 nM.
For N#Cc1ccc(C(=O)N2CCc3cc4c(cc3C2)nc2n4CCN(C3CCC3)CC2)cc1 [Compound 185, 4-(9-cyclobutyl-2,3,4,7,8,9,10,11-octahydro-1H-[1,4]diazepino[7′,1′:2,3]imidazo[4,5-g]isoquinoline-2-carbonyl)benzonitrile], the IC50 was ≤ 10 nM.
In the case of c1cnc(Oc2ccc3c(c2)nc2n3CCN(C3CCC3)CC2)cn1 [Compound 51], the IC50 is reported as ≤ 100 nM.
For O=C(c1ccc2c(c1)nc1n2CCN(C2CCC2)CC1)N1CCOCC1 [Compound 56], the IC50 was ≤ 100 nM.
N#Cc1ccc(-c2ccc3c(c2)nc2n3CCN(C3CCC3)CC2)cn1 [Compound 27, 5-(3-cyclobutyl-2,3,4,5-tetrahydro-1H-[1,4]diazepino[1,7-a]benzimidazol-9-yl)-picolinonitrile] was tested, and the IC50 was ≤ 10 nM.
CC1CCCC1N1CCc2nc3cc(-c4ccc(C#N)cc4)ccc3n2CC1 (racemic) [Compound 35, rac-cis/trans-4-(3-(2-methylcyclopentyl)-2,3,4,5-tetrahydro-1H-[1,4]diazepino[1,7-a]benzimidazol-9-yl)benzonitrile] was tested, and the IC50 was ≤ 10 nM.
With c1cc2c(cc1N1CCN(C3CCOC3)CC1)nc1n2CCN(C2CCC2)CC1 (racemic) [Compound 101, rac-3-cyclobutyl-9-(4-(tetrahydrofuran-3-yl)piperazin-1-yl)-2,3,4,5-tetrahydro-1H-[1,4]diazepino[1,7-a]benzimidazole] the IC50 was ≤ 10 nM.
c1cc2c(cc1N1CCN(CC3CC3)CC1)nc1n2CCN(C2CCC2)CC1 [Compound 104, 3-cyclobutyl-9-(4-(cyclopropylmethyl)piperazin-1-yl)-2,3,4,5-tetrahydro-1H-[1,4]diazepino[1,7-a]benzimidazole] was tested, and the IC50 was ≤ 10 nM.
With N#Cc1ccc(C(=O)N2CCN(c3ccc4c(c3)nc3n4CCN(C4CCC4)CC3)CC2)cc1 [Compound 168, 4-(4-(3-cyclobutyl-2,3,4,5-tetrahydro-1H-benzo[4,5]imidazo[1,2-d][1,4]diazepin-8-yl)piperazine-1-carbonyl)benzonitrile] the IC50 was ≤ 10 nM.
For c1cc2c(nc3n2CCN(C2CCC2)CC3)c2c1CNCC2 [Compound 184, 10-cyclobutyl-2,3,4,8,9,10,11,12-octahydro-1H-[1,4]diazepino[1′,7′:1,2]imidazo[4,5-f]isoquinoline], the IC50 was ≤ 1000 nM.
In the case of O=C(c1cnccn1)N1CCCC(c2ccc3c(c2)nc2n3CCN(C3CCC3)CC2)C1 (stereo not drawn) [Compound 173, (3-(3-cyclobutyl-2,3,4,5-tetrahydro-1H-benzo[4,5]imidazo[1,2-d][1,4]diazepin-8-yl)piperidin-1-yl)(pyrazin-2-yl)methanone], the IC50 is reported as ≤ 100 nM.

Source: patent publication US8404670B2 (Sunovion Pharmaceuticals Inc., priority 2009, dated 2013)
